Reference: patent publication US20240189239A1, “PROCESS FOR CONTINUOUS HOT MELT GRANULATION OF LOW SOLUBLE PHARMACEUTICALS” (Merck Patent GmbH, priority 2021, published 2024)

Assay: Dissolution measurement of granules of Example 1 (paddle, 900 ml SGFsp, 37° C.)
Assay type: physicochemical
Conditions: paddle 75 rpm, 50 mg ITZ, up to 120 min
Experimental: For measuring the dissolution, granules as obtained in Example 1 were used directly without further processing. 3 samples per temperature setup were used. 500 mg 10% ITZ granulate were weighted (Mettler Toledo Delta Range XP105) which equals 50 mg ITZ API.
Dissolution was performed using a Sotax AT7 smart with an online Photometer Specord 200+ from Analytik Jena. As a medium 900 ml SGF.sp (20 g NaCl, 800 ml 0.1 M HCl ad 10.0 L VE-water) at 37° C.±0.5 was used. The following settings were used: Rotation speed 75 rpm; Paddle method; Pre-filter: Glass Mircofiber Filters GE Whatmann GF/D Diameter 25 mm, 5 mm HELMA flow-through cuvette, Sampling Points: 5,20,35,50,60,120 Min.
The granulation with polyvinyl alcohol at a temperature between 140° C. to 170° C. increases the solubility of the compound (lines 2 to 6). At 175° C. the solubility suddenly increases. With higher temperature solubility is further enhanced. An immediate release can be observed for temperatures of 180° C. to 190° C. (lines 8 to 10). With a further temperature increase above the melting temperature of PCA (line 11; 200° C.) the drug release rates are delayed.

CCC(C)n1ncn(-c2ccc(N3CCN(c4ccc(OCC5COC(Cn6cncn6)(c6ccc(Cl)cc6Cl)O5)cc4)CC3)cc2)c1=O (stereo not shown) [crystalline itraconazole, itraconazole]
solubility / drug release of itraconazole in the release medium (FIG. 3): very low solubility
